Read-outs that look alike come from different tables or passages of the source.
Experiments:
Assay type in all cases: in vivo
soybean plants [1] = experiment: Damage on plants after seed treatment, relative growth inhibition in non-inoculated plants (Example A, Tests 1-6)
Experimental: (§1) The test is performed under greenhouse conditions.
(§2) Soybean seeds, treated to the desired dosages with the active compound solved in N-methyl-2-pyrrolidon and diluted with water, were sown in 6×6 cm pots (one seed per pot) filled with 1:1 mixture of steamed loam soil and quartz sand.
(§3) The plants were grown at 24° C. and 90% relative humidity in a greenhouse. Ascospores of Sclerotinia sclerotiorum were collected from 3 month old asci. Whole aerial surface of 19-25-day-old seedlings were sprayed with water suspension of the ascospores. The plants were kept for 48-96 hours in the dark at 24° C. and a relative humidity of 99%.

Sclerotinia sclerotiorum [2] = experiment: Seed treatment test, control efficacy against ascospore infection in soybean, greenhouse (Example A, Tests 1-6); settings: for pest or weed control at 25 g/100 kg seed: soybean seed treatment 25 g a.i./100 kg seed; for pest or weed control at 50 g/100 kg seed: soybean seed treatment 50 g a.i./100 kg seed; for pest or weed control at 70 g/100 kg seed / pest or weed control at 140 g/100 kg seed / pest or weed control at 35 g/100 kg seed: read-out: Sclerotinia sclerotiorum Control efficacy %; for pest or weed control at 10 g/100 kg seed: soybean seed treatment 10 g a.i./100 kg seed
Experimental: as §1, §2, §3
(§4) Assessment consisted of evaluation of infected area of the unifoliate leaves. Zero % means infection which corresponds to that of the untreated check, while an efficacy of 100% means that no infection was observed.
The control efficacy is based on % infected leaf area.
Moreover, the tests were performed with different batches of plants.

soybean plants [3] = experiment: Damage on plants after seed treatment, emergence inhibition (Example B, Test 8); settings: soybean seed treatment 50 g a.i./100 kg seed
Experimental: as §2
as §3, with “27 day-old” for “19-25-day-old”, “72” for “48-96”

Sclerotinia sclerotiorum [4] = experiment: Seed treatment test (soybean) with current standards, control efficacy (Example B, Test 8); settings: soybean seed treatment 50 g a.i./100 kg seed, incubation 3 days, inoculation 27 days after sowing
Experimental: as §2
as §3, with “27 day-old” for “19-25-day-old”, “72” for “48-96”
as §4

Sclerotinia sclerotiorum [5] = experiment: Spray test (dwarf beans), preventive control efficacy (Example B, Test 7); settings: spray treatment 100 mg ai/Liter, dwarf bean, 10 days old plants, incubation 3 days
Experimental: (§5) Solvent: 24.5 parts by weight of acetone • 24.5 parts by weight of dimethylacetamide
(§6) Emulsifier: 1 part by weight of alkylaryl polyglycol ether
(§7) To produce a suitable preparation of active compound, 1 part by weight of active compound is mixed with the stated amounts of solvent and emulsifier, and the concentrate is diluted with water to the desired concentration.
(§8) To test for preventive activity, unifoliate leaves of 10 day-old plants are sprayed with the preparation of active compound. After the spray coating has dried on, 2 small pieces of agar covered with growth of Sclerotinia sclerotiorum are placed on each leaf. The inoculated plants are placed in a darkened chamber at approximately 20° C. and a relative atmospheric humidity of 100%.
3 days after the inoculation, the size of the lesions on the leaves is evaluated. 0% means an efficacy which corresponds to that of the untreated control, while an efficacy of 100% means that no disease is observed.

dwarf beans = experiment: Damage on plants in spray test (Example B, Test 7); settings: spray treatment 100 mg ai/Liter, dwarf bean
Experimental: as §5, §6, §7, §8

[6] = Test 1, soybean seed treatment 25 g a.i./100 kg seed
[7] = Test 1, soybean seed treatment 50 g a.i./100 kg seed
[8] = Sclerotinia sclerotiorum, 72 h, Test 1, incubation 3 days, inoculation 19 days after sowing
[9] = Sclerotinia sclerotiorum, 96 h, Test 4, incubation 4 days, inoculation 25 days after sowing
[10] = Sclerotinia sclerotiorum, 48 h, Test 3, incubation 2 days, inoculation 20 days after sowing
[11] = Sclerotinia sclerotiorum, 72 h, Test 6, incubation 3 days, inoculation 22 days after sowing
[12] = Test 3, soybean seed treatment 70 g a.i./100 kg seed
[13] = Test 6, soybean seed treatment 70 g a.i./100 kg seed
[14] = Sclerotinia sclerotiorum, 48 h, Test 5, incubation 2 days, inoculation 21 days after sowing
[15] = Example A, soybean seed treatment
[16] = Test 6, soybean seed treatment 140 g a.i./100 kg seed
[17] = Sclerotinia sclerotiorum, 48 h, Test 3, soybean seed treatment 70 g a.i./100 kg seed, incubation 2 days, inoculation 20 days after sowing
[18] = Sclerotinia sclerotiorum, 48 h, Test 3, soybean seed treatment 140 g a.i./100 kg seed, incubation 2 days, inoculation 20 days after sowing
[19] = Sclerotinia sclerotiorum, 72 h, Test 6, soybean seed treatment 70 g a.i./100 kg seed, incubation 3 days, inoculation 22 days after sowing
[20] = Sclerotinia sclerotiorum, 72 h, Test 6, soybean seed treatment 140 g a.i./100 kg seed, incubation 3 days, inoculation 22 days after sowing

## CC(C)ON=C(CNC(=O)c1ccccc1C(F)(F)F)c1ncc(Cl)cc1Cl
Soybean plants [1]; [6]
  Damage on plants (relative growth inhibition in non-inoculated plants compared to untreated plants: in %): 0%
Soybean plants [1]; [7]
  Damage on plants (relative growth inhibition in non-inoculated plants compared to untreated plants: in %): 0%
Sclerotinia sclerotiorum [2]; [8]
  pest or weed control at 25 g/100 kg seed: 5%
  pest or weed control at 50 g/100 kg seed: 53%

## Cc1nc2c(F)c(F)ccc2cc1Oc1cccc(F)c1C(C)(C)O
Sclerotinia sclerotiorum [2]; Sclerotinia sclerotiorum, 96 h
  pest or weed control at 70 g/100 kg seed: 0%
  pest or weed control at 140 g/100 kg seed: 99%

## O=S(=O)(Nc1ncc(C(F)(F)F)cc1Cl)c1ccccc1Cl
Soybean plants [1]; Test 4, soybean seed treatment 10 g a.i./100 kg seed
  Damage on plants (relative growth inhibition in non-inoculated plants compared to untreated plants: in %): 17%
Soybean plants [1]; Test 4, soybean seed treatment 50 g a.i./100 kg seed
  Damage on plants (relative growth inhibition in non-inoculated plants compared to untreated plants: in %): 8%
Sclerotinia sclerotiorum [2]; [9]
  pest or weed control at 10 g/100 kg seed: 73%
  pest or weed control at 50 g/100 kg seed: 70%

## O=c1c2cc(F)ccc2nc(-n2cncn2)n1-c1ccc(Cl)cc1Cl [Fluquinconazole]
Soybean plants [1]; Test 3, soybean seed treatment 25 g a.i./100 kg seed
  Damage on plants (relative growth inhibition in non-inoculated plants compared to untreated plants: in %): 0%
Soybean plants [1]; Test 3, soybean seed treatment 50 g a.i./100 kg seed
  Damage on plants (relative growth inhibition in non-inoculated plants compared to untreated plants: in %): 0%
Soybean plants [1]; Test 6, soybean seed treatment 25 g a.i./100 kg seed
  Damage on plants (relative growth inhibition in non-inoculated plants compared to untreated plants: in %): 0%
Soybean plants [1]; Test 6, soybean seed treatment 50 g a.i./100 kg seed
  Damage on plants (relative growth inhibition in non-inoculated plants compared to untreated plants: in %): 0%
Sclerotinia sclerotiorum [2]; [10]
  pest or weed control at 25 g/100 kg seed: 83%
  pest or weed control at 50 g/100 kg seed: 86%
Sclerotinia sclerotiorum [2]; [11]
  pest or weed control at 25 g/100 kg seed: 0%
  pest or weed control at 50 g/100 kg seed: 2%

## N#Cc1ccccc1NC(=O)c1snc(Cl)c1Cl [Isotianil]
Soybean plants [1]; Test 3, soybean seed treatment 35 g a.i./100 kg seed
  Damage on plants (relative growth inhibition in non-inoculated plants compared to untreated plants: in %): 11%
Soybean plants [1]; [12]
  Damage on plants (relative growth inhibition in non-inoculated plants compared to untreated plants: in %): 0%
Soybean plants [1]; Test 6, soybean seed treatment 35 g a.i./100 kg seed
  Damage on plants (relative growth inhibition in non-inoculated plants compared to untreated plants: in %): 0%
Soybean plants [1]; [13]
  Damage on plants (relative growth inhibition in non-inoculated plants compared to untreated plants: in %): 0%
Sclerotinia sclerotiorum [2]; Sclerotinia sclerotiorum, 48 h
  pest or weed control at 35 g/100 kg seed: 46%
  pest or weed control at 70 g/100 kg seed: 65%
Sclerotinia sclerotiorum [2]; Sclerotinia sclerotiorum, 72 h
  pest or weed control at 35 g/100 kg seed: 15%
  pest or weed control at 70 g/100 kg seed: 18%

## CC(O)(Cn1cncn1)c1ccc(Oc2ccc(Cl)cc2)cc1C(F)(F)F (centres unmarked) [Mefentrifluconazole]
Soybean plants [1]; Test 5, soybean seed treatment 10 g a.i./100 kg seed
  Damage on plants (relative growth inhibition in non-inoculated plants compared to untreated plants: in %): 0%
Soybean plants [1]; Test 5, soybean seed treatment 25 g a.i./100 kg seed
  Damage on plants (relative growth inhibition in non-inoculated plants compared to untreated plants: in %): 10%
Sclerotinia sclerotiorum [2]; [14]
  pest or weed control at 10 g/100 kg seed: 90%
  pest or weed control at 25 g/100 kg seed: 84%

## O=C(Nc1ccccc1-c1ccc(F)c(F)c1)c1nccnc1C(F)(F)F [Pyraziflumid]
Soybean plants [1]; [15]
  damage on soybean plants (in words): without giving any damage
Soybean plants [1]; [6]
  Damage on plants (relative growth inhibition in non-inoculated plants compared to untreated plants: in %): 0%
Soybean plants [1]; [7]
  Damage on plants (relative growth inhibition in non-inoculated plants compared to untreated plants: in %): 0%
Soybean plants [1]; Test 2, soybean seed treatment 70 g a.i./100 kg seed
  Damage on plants (relative growth inhibition in non-inoculated plants compared to untreated plants: in %): 0%
Soybean plants [1]; Test 2, soybean seed treatment 140 g a.i./100 kg seed
  Damage on plants (relative growth inhibition in non-inoculated plants compared to untreated plants: in %): 0%
Soybean plants [1]; [12]
  Damage on plants (relative growth inhibition in non-inoculated plants compared to untreated plants: in %): 0%
Soybean plants [1]; Test 3, soybean seed treatment 140 g a.i./100 kg seed
  Damage on plants (relative growth inhibition in non-inoculated plants compared to untreated plants: in %): 0%
Soybean plants [1]; Test 4, soybean seed treatment 70 g a.i./100 kg seed
  Damage on plants (relative growth inhibition in non-inoculated plants compared to untreated plants: in %): 0%
Soybean plants [1]; Test 4, soybean seed treatment 140 g a.i./100 kg seed
  Damage on plants (relative growth inhibition in non-inoculated plants compared to untreated plants: in %): 0%
Soybean plants [1]; Test 5, soybean seed treatment 75 g a.i./100 kg seed
  Damage on plants (relative growth inhibition in non-inoculated plants compared to untreated plants: in %): 0%
Soybean plants [1]; [13]
  Damage on plants (relative growth inhibition in non-inoculated plants compared to untreated plants: in %): 0%
Soybean plants [1]; [16]
  Damage on plants (relative growth inhibition in non-inoculated plants compared to untreated plants: in %): 30%
Sclerotinia sclerotiorum [2]; [15]
  control efficacy against ascospore infection of Sclerotinia Sclerotiorum (in words): excellent control efficacy
Sclerotinia sclerotiorum [2]; [17]
  pest or weed control at 70 g/100 kg seed: 87%
Sclerotinia sclerotiorum [2]; [18]
  pest or weed control at 140 g/100 kg seed: 95%
Sclerotinia sclerotiorum [2]; Sclerotinia sclerotiorum, 48 h, Test 5, soybean seed treatment 75 g a.i./100 kg seed, incubation 2 days, inoculation 21 days after sowing
  pest or weed control at 75 g/100 kg seed: 98%
Sclerotinia sclerotiorum [2]; [8]
  pest or weed control at 25 g/100 kg seed: 96%
  pest or weed control at 50 g/100 kg seed: 95%
Sclerotinia sclerotiorum [2]; [19]
  pest or weed control at 70 g/100 kg seed: 36%
Sclerotinia sclerotiorum [2]; [20]
  pest or weed control at 140 g/100 kg seed: 33%
Sclerotinia sclerotiorum [2]; Sclerotinia sclerotiorum, 96 h, Test 2, soybean seed treatment 70 g a.i./100 kg seed, incubation 4 days, inoculation 22 days after sowing
  pest or weed control at 70 g/100 kg seed: 58%
Sclerotinia sclerotiorum [2]; Sclerotinia sclerotiorum, 96 h, Test 2, soybean seed treatment 140 g a.i./100 kg seed, incubation 4 days, inoculation 22 days after sowing
  pest or weed control at 140 g/100 kg seed: 86%
Sclerotinia sclerotiorum [2]; Sclerotinia sclerotiorum, 96 h, Test 4, soybean seed treatment 70 g a.i./100 kg seed, incubation 4 days, inoculation 25 days after sowing
  pest or weed control at 70 g/100 kg seed: 80%
Sclerotinia sclerotiorum [2]; Sclerotinia sclerotiorum, 96 h, Test 4, soybean seed treatment 140 g a.i./100 kg seed, incubation 4 days, inoculation 25 days after sowing
  pest or weed control at 140 g/100 kg seed: 90%

## CC1(C)N=C(c2cnc3ccccc3c2)c2ccccc2C1(F)F [Quinofumelin]
Soybean plants [1]; [13]
  Damage on plants (relative growth inhibition in non-inoculated plants compared to untreated plants: in %): 0%
Soybean plants [1]; [16]
  Damage on plants (relative growth inhibition in non-inoculated plants compared to untreated plants: in %): 0%
Sclerotinia sclerotiorum [2]; [19]
  pest or weed control at 70 g/100 kg seed: 16%
Sclerotinia sclerotiorum [2]; [20]
  pest or weed control at 140 g/100 kg seed: 1%

## CC1(C)N=C(c2cnc3ccccc3c2)c2ccccc2C1(F)F [drawing 23]
Sclerotinia sclerotiorum [2]; [17]
  pest or weed control at 70 g/100 kg seed: 72%
Sclerotinia sclerotiorum [2]; [18]
  pest or weed control at 140 g/100 kg seed: 96%

## O=C(NCCc1ncc(C(F)(F)F)cc1Cl)c1ccccc1C(F)(F)F [fluopyram]
Soybean plants [3]
  Damage on plants (emergence inhibition in %): 25%
Sclerotinia sclerotiorum [4]
  Sclerotinia sclerotiorum Control efficacy %: 68%
Sclerotinia sclerotiorum [5]
  Sclerotinia sclerotiorum Control efficacy %: 100%
Dwarf beans
  Damage on plants (in %): 0%

## CON(C(=O)c1cn(C)nc1C(F)F)C(C)Cc1c(Cl)cc(Cl)cc1Cl (centres unmarked) [pydiflumetofen]
Soybean plants [3]
  Damage on plants (emergence inhibition in %): 0%
Sclerotinia sclerotiorum [4]
  Sclerotinia sclerotiorum Control efficacy %: 0%
Sclerotinia sclerotiorum [5]
  Sclerotinia sclerotiorum Control efficacy %: 100%
Dwarf beans
  Damage on plants (in %): 0%

— patent US20190261630A1, “USE OF PYRAZIFLUMID FOR CONTROLLING SCLEROTINIA SPP IN SEED TREATMENT APPLICATIONS” (Bayer CropScience Aktiengesellschaft, priority 2016, published 2019)
